In article PMC3772838, “Preclinical Development of a Novel Class of CXCR4 Antagonist Impairing Solid Tumors Growth and Metastases” (PLoS ONE, 2013):
Bridges are numbered along the chain shown (N, C = ends). Where no end group is shown, it is not given here.

How the values were obtained:
[1] = system: B16-CXCR4 murine melanoma cells; test: B16-CXCR4 melanoma lung metastases model; type: in vivo, C57BL/6 mice; conditions: cells pre-treated 30 min with 10 µM, IP once a day for 10 days, peptides 2 mg/kg, AMD3100 1.25 mg/kg; for number of lung metastases: control 8.4±3.49, average
Method: All mice were obtained from Harlan (Bar Harbor, ME, USA) and their care was in accord with institutional guidelines. Twenty-five 6-8-week-old female C57BL/6 mice were inoculated into the tail vein with 5×10^5 B16–CXCR4 cells pre-treated for 30 minutes with peptide S (10 µM), peptide R (10 µM), peptide I (10 µM), or AMD3100 (10 µM). Six hours later intraperitoneal (IP) treatment started with AMD3100 (1.25 mg/kg) or each peptide (2 mg/kg) in sterile PBS once a day for 10 days. A week later the mice were sacrificed. The experiment was repeated three times. The lung metastases assay was also conducted with K7M2 murine osteosarcoma cells. Twenty-five 6-8-week-old female Balb/c mice were injected via tail vein with 2.5×10^5 K7M2 cells pre-treated for 30 minutes with AMD3100 (10 µM), peptide S (10 µM), peptide R (10 µM), peptide I (10 µM) and animals were treated IP daily for 15 days with 2.5 mg/kg for AMD3100 group and 10 mg/kg for each peptide groups. A week later the mice were sacrificed. Xenograft tumor growth was evaluated using pEGFP-SN12C cells in exponential growth phase subcutaneously injected into the right flank of twenty-five 6-8-week-old female CD1 nude mice. 2×10^6 SN12C-pEGFP were injected in the right flank of each mouse and treated with AMD3100 (1.25 mg/kg) and peptides (2 mg/kg) for 10 days ip. A week later mice were euthanized and tumor volume evaluated through Leica MacroFluo fluorescence stereomicroscope (Leica microsystem, Houston, TX). The experiment was repeated three times. The Istituto Nazionale per lo Studio e la Cura dei Tumori, Fondazione Giovanni Pascale Independent Etical Comettee approved the study (CEI/600/12).
(A) B16-CXCR4 tumor cells pre-treated for 30 minutes with AMD3100 (10 µM), peptide R (10 µM), peptide I (10 µM), or peptide S (10 µM) were inoculated into the tail vein of C57/B female mice and the mice were further treated intraperitoneally for 10 days with 1.25 mg/kg AMD3100, or 2 mg/kg peptide R, peptide I or peptide S. Gross examination of representative lungs; (B) Graphical representation of the number of lung metastases in treated mice. Double tailed T-Test was used for statistical analyses. The experiments were repeated three times.

[2] = system: PES43 human melanoma cells; test: CXCL12-dependent Transwell migration of PES43 cells; type: cell-based; conditions: 100 ng/mL CXCL12 in lower chamber, 16 h, tested 10 nM, 100 nM, 1 µM, 10 µM
Method: (§1) Migration was assayed in 24-well Transwell chambers (Corning Inc., Corning, NY) using inserts with an 8-µm pore membrane. Membranes were precoated with collagen (human collagen type I/III) and fibronectin (20 µg/mL each). […] After 16 h incubation, cells on the upper surface of the filter were removed using a cotton wool swab; migration of cells in migration media alone was compared with migration in media containing CXCL12. The cells were counted in ten different fields (original magnification ×40). The migration index was defined as the ratio between migrating cells in the experimental group and migrated cells in the control group. For the wound closure assay, tested cells were allowed to reach confluence in six-well plates containing serum-depleted growth medium and scratched with pipette tips to make wounds. The wound closure was observed microscopically 6 hours post-wounding (OKO Time Lapse).
(§2) Experiments were conducted using PES43 cells. (A) Migration was assayed in 24-well Transwell chambers using inserts with 8-µm pore membrane. […] Migrated cells on the lower surface were fixed, stained with H&E and counted microscopically. The results are expressed as the migration index relative to migration in presence of BSA alone. […] Images were acquired with OKO Time Lapse. […] PES43 cells were serum-starved and incubated with CXCL12 (100 ng/ml) alone or in presence of AMD3100/peptides. Each peptide was tested in at least three different experiments. Double tailed T-Test was used for statistical analyses. Differences were considered significant at P<0.05 compared to control.

[3] = system: K7M2 murine osteosarcoma cells; test: K7M2 in vitro migration; type: cell-based, mouse; conditions: Figure 4
Method: as §1

[4] = system: PES43 human melanoma cells; test: CXCL12-mediated wound closure assay; type: cell-based; conditions: 6 hours post-wounding
Method: as §1, §2

CXCR4 [5] = test: Competition with 12G5 anti-CXCR4 antibody binding (flow cytometry); parameters: species or system human; conditions: CCRF-CEM cells, 10 µM peptide, 30 min pre-incubation at 37°C, PE-labelled 12G5, flow cytometry; at least three experiments
Method: CXCR4 binding was evaluated as previously described. Briefly 5×10^5 CCRF–CEM cells were pre-incubated with 10 µM peptides or AMD3100 in binding buffer (PBS 1× plus 0.2% BSA and 0.1% NaN3) for 30 minutes at 37°C, 5% CO2 and then labeled for 30 minutes with anti-CXCR4 PE-antibody (FAB170P, clone 12G5, R&D Systems, Minneapolis, MN, USA). The cells were analyzed by FACS Canto II cytofluorometer (Becton Dickinson Immunocytometry Systems, Mountain View, CA, USA).
(§3) (A) The amount of peptides or AMD3100 bound was assessed indirectly by flow cytometry using the PE-labelled anti-CXCR4 antibody (clone 12G5). Results are expressed as the percent antibody bound. (B) The Ca^2+ influx assay was performed using CCRF-CEM cells and Fluo-3 AM calcium indicator. CCRF-CEM cells were incubated 30 minutes at 37°C with Fluo-3 AM and 15 minutes with AMD3100 (10 µM)/peptides (10 µM) and then treated with CXCL12. Results are expressed as the percent of Fluo-3 AM fluorescence in presence of CXCL12 alone. Each peptide was tested in at least three different experiments. Double tailed T-Test was used for statistical analyses. Differences were considered significant at P<0.05 compared to control. Control (CTRL).

CXCR4 [6] = test: Mobilization of hematopoietic precursors and neutrophils; type: in vivo; conditions: DBA/2 mouse; for duration of mobilization effect compared to AMD3100: preliminary; for stem cell and neutrophil mobilization relative to AMD3100: preliminary evidence
Description: The development of CXCR4 inhibitors is of increasing interest with AMD3100 (Plerixafor) having been approved by the FDA for stem cell mobilization, [39]. We evaluated peptides R, I and S for their ability to mobilize hematopoietic precursors in a DBA/2 mouse model in a CXCR4 dependent manner.

CXCR4 [7] = test: CXCL12-induced calcium mobilization assay (Fluo-3 AM); type: cell-based, human; conditions: CCRF-CEM cells, 10 µM peptide, percent of fluorescence with CXCL12 alone; at least three experiments
Method: For the calcium efflux studies a 2 mg/mL stock solution of Fluo-3 acetoxymethylester (Invitrogen, Carlsbad, CA) in anhydrous DMSO was used. […] CCRF–CEM cells were resuspended in cell loading buffer (PBS, 1% FCS, 1 mmol/L MgCl2, and 1 mmol/L CaCl2) at 5×10^5 cells/mL. Fluo-3AM and Pluronic acid were added to each sample to increase Fluo-3AM solubility and improve dye loading into the cells. Baseline calcium efflux was established, then chemokines were added as indicated and chemokine-induced calcium efflux was measured.
as §3

Row | association of the 12G5-CXCR4 antibody to the receptor (CXCR4 [5]) | Substance | fold reduction of the number of lung metastases vs control [1] | number of lung metastases [1] | concentration at which CXCL12-dependent migration was inhibited [2] | K7M2 in vitro migration [3] | CXCL12-mediated wound healing [4] | duration of mobilization effect compared to AMD3100 (CXCR4 [6]) | stem cell and neutrophil mobilization relative to AMD3100 (CXCR4 [6]) | CXCL12-induced calcium efflux (Fluo-3 AM fluorescence) (CXCR4 [7])
1 | 21 % of control | Arg-Ala-[Cys-Arg-Phe-Phe-Cys] (RACRFFC; disulfide 3-7) [Peptide R, CXCL12-mimetic disulfide-cyclic peptide] | 7 fold | 1.2±1.4 | ≤ 10 nM | reduced | delayed | more durable | as potent stem cell and neutrophil mobilization as does AMD3100 | 51.25 % of control
2 | 17 % of control | Arg-Ala-[Cys-Arg-His-Trp-Cys] (RACRHWC; disulfide 3-7) [Peptide S, CXCL12-mimetic disulfide-cyclic peptide] |  | 2.96±2.39 | ≤ 10 nM | reduced | delayed | more durable | as potent stem cell and neutrophil mobilization as does AMD3100 | 49.75 % of control

Row | Substance | association of the 12G5-CXCR4 antibody to the receptor (CXCR4 [5]) | fold reduction of the number of lung metastases vs control [1] | number of lung metastases [1] | concentration at which CXCL12-dependent migration was inhibited [2] | K7M2 in vitro migration [3] | CXCL12-mediated wound healing [4] | duration of mobilization effect compared to AMD3100 (CXCR4 [6]) | stem cell and neutrophil mobilization relative to AMD3100 (CXCR4 [6]) | CXCL12-induced calcium efflux (Fluo-3 AM fluorescence) (CXCR4 [7])
3 | [Cys-Trp-His-Arg-Cys] (CWHRC; disulfide 1-5) [Peptide I, v-MIP-II mimetic disulfide-cyclic peptide] | 45 % of control | 41.5 fold | 0.2±0.44 | ≤ 10 nM | reduced | delayed | more durable | as potent stem cell and neutrophil mobilization as does AMD3100 | Minimal effect
